Source: the SangsterLogP compilation

Work on `COc1cccc2cc(C(=O)Nc3cc(C)cc(C)n3)oc12` yielded a logP of 4.27.
With `Cc1cc(C)nc(NC(=O)c2cccs2)c1` the logP was 2.77.
In the case of `Cc1cc(C)nc(NC(=O)Cc2ccc(Br)cc2)c1`, the logP is reported as 4.07.
In the case of `CC(=O)Oc1ccccc1C(=O)Nc1cc(C)cc(C)n1`, the logP is reported as 2.35.
For `Cc1cc(C)nc(NC(=O)c2cccc(Br)c2)c1`, the logP was 4.04.
Work on `Cc1cc(C)nc(NC(=S)c2ccc(C)o2)c1` yielded a logP of 3.2.
With `Cc1cc(C)nc(NC(=O)c2cccn2C)c1` the logP was 2.42.
`Cc1cc(C)nc(NC(=O)c2cc3ccccc3s2)c1` showed a logP of 4.08.
Compound `Cc1cc(C)nc(NC(=O)c2ccc(Br)s2)c1` has a logP of 3.74.
`Cc1cc(C)nc(NC(=O)c2ccco2)c1` gave a logP of 2.25.
`Cc1cc(C)nc(NC(=O)c2ccccc2)c1` gave a logP of 3.09.
With `Cc1cc(C)nc(NC(=O)C(c2ccccc2)c2ccccc2)c1` the logP was 4.77.
`Cc1cc(C)nc(NC(=O)c2cccc(F)c2)c1` gave a logP of 3.31.
With `Cc1cc(C)nc(NC(=O)C(C)c2ccccc2)c1` (configuration not stated) the logP was 3.67.
Work on `Cc1cc(C)nc(NC(=O)c2cc3ccccc3o2)c1` yielded a logP of 3.54.
`Cc1cc(C)nc(NC(=O)c2cccc(Cl)c2)c1` gave a logP of 3.88.
Work on `Cc1cc(C)nc(NC(=O)c2ccc(Br)o2)c1` yielded a logP of 3.22.
With `Cc1cc(C)nc(NC(=O)c2ccc([N+](=O)[O-])o2)c1` the logP was 2.39.
`Cc1cc(C)nc(NC(=O)c2cccc(C#N)c2)c1` gave a logP of 2.88.
In the case of `Cc1cc(C)nc(NC(=S)c2ccccc2)c1`, the logP is reported as 3.45.
In the case of `Cc1cc(C)nc(NC(=O)c2cccc([N+](=O)[O-])c2)c1`, the logP is reported as 3.13.
`Cc1cc(C)nc(NC(=O)c2ccc(C)o2)c1` gave a logP of 2.75.
